Reference: US4492650A, “A54556 Antibiotics and process for production thereof” (Eli Lilly and Company, priority 1982, dated 1985)
In brackets after ≈: the same amount, converted by molar mass. Several values for one entry are separate records, joined by “and”; a condition that tells them apart may be missing. Equal entries are not always repeated. Where two headings read alike, the source gives them in different places. Bridge positions count the residues as written; N and C are the ends. Square brackets hold non-standard residues; d marks the D form. Peptide text beside a SMILES is read from it. * marks the point of attachment. ξ: configuration not given here. Octatrienoyl(2E,4E,6E) = C/C=C/C=C/C=C/C(=O)*; Hexadienoyl(2E,4E) = C/C=C/C=C/C(=O)*; ξPro(4ξ-Me) = CC1CNC(C(=O)O)C1; NMeA = CN[CH](C)C(=O)O

What was measured:
[1] = test system: Bacteroides corrodens 1874; assay: MIC, agar-dilution method; format: cell-based; settings: Eikenella corrodens
[2] = test system: Staphylococcus aureus 3074; settings: Table 12, benzylpenicillin resistant
[3] = test system: Staphylococcus epidermidis EPI1; settings: second test, Table 13
Peptococcus prevoti 1281 = assay: MIC, agar-dilution method; format: cell-based
[4] = test system: Streptococcus pneumoniae Park I
[5] = test system: Staphylococcus aureus 3130; settings: Table 12, benzylpenicillin resistant, methicillin resistant
[6] = test system: Streptococcus pyogenes (Group A) C203
[7] = test system: Bacteroides vulgatis 1211; assay: MIC, agar-dilution method; format: cell-based
[8] = test system: Fusobacterium symbiosum 1470; assay: MIC, agar-dilution method; format: cell-based
[9] = test system: Staphylococcus aureus V41; settings: second test, Table 13, benzylpenicillin resistant
Solubility = settings: for solubility in organic solvents: lower alcohols (methyl, ethyl, isopropyl, n-propyl, n-butyl), acetone, ethyl acetate, tetrahydrofuran, pyridine, dimethyl sulfoxide
[10] = test system: Staphylococcus aureus 3055; settings: benzylpenicillin-susceptible
[11] = test system: Clostridium difficile 2994; assay: MIC, agar-dilution method; format: cell-based; settings: Clostridioides difficile
From the text: (§1) Antibiotic A54556 factors A, B, C, D, E, F, G, and H have been tested and found to be active against a number of anaerobic bacteria, as recorded in Table 14, which follows, the MIC values having been determined by the agar-dilution method.

[12] = test system: Bacteroides thetaiotaomicron 1438; assay: MIC, agar-dilution method; format: cell-based
From the text: as §1

[13] = test system: Peptostreptococcus intermedius 1264; assay: MIC, agar-dilution method; format: cell-based
From the text: as §1

[14] = test system: Bacteroides melaninogenicus 1856/28; assay: MIC, agar-dilution method; format: cell-based; settings: Prevotella intermedia
From the text: as §1

[15] = test system: Bacteroides fragilis 1936B; assay: MIC, agar-dilution method; format: cell-based
From the text: as §1

[16] = test system: Bacteroides fragilis 1877; assay: MIC, agar-dilution method; format: cell-based
From the text: as §1

[17] = test system: Bacteroides melaninogenicus 2736; assay: MIC, agar-dilution method; format: cell-based
From the text: as §1

[18] = test system: Fusobacterium necrophorum 6054A; assay: MIC, agar-dilution method; format: cell-based
From the text: as §1

Bacteroides fragilis 111 = assay: MIC, agar-dilution method; format: cell-based
From the text: as §1

[19] = test system: Clostridium septicum 1128; assay: MIC, agar-dilution method; format: cell-based
From the text: as §1

[20] = test system: Propionibacterium acnes 79; assay: MIC, agar-dilution method; format: cell-based; settings: Cutibacterium acnes
From the text: as §1

[21] = test system: Eubacterium aerofaciens 1235; assay: MIC, agar-dilution method; format: cell-based; settings: Collinsella aerofaciens
From the text: as §1

[22] = test system: Peptococcus asaccharolyticus 1302; assay: MIC, agar-dilution method; format: cell-based; settings: Peptoniphilus asaccharolyticus
S. pyogenes = assay: In vivo protection against experimental bacterial infection in mice; settings: Streptococcus pyogenes, sc, two doses subcutaneously
Method: (§2) When two doses of test compound were administered subcutaneously to mice in illustrative infections, the activity is measured as an ED50 value [effective does in mg./kg. to protect fifty percent of the test animals: See Warren Wick et al., J. Bacteriol. 81, 233-235 (1961)]. The ED50 values for these antibiotic A54556 factors are recorded in Table 15, which follows.

[23] = test system: Peptostreptococcus anaerobius 1428; assay: MIC, agar-dilution method; format: cell-based
[24] = test system: Streptococcus sp. (Group D) 9960; assay: Disc-plate sensitivity; settings: read-out: Zone diameter
anaerobic bacteria = assay: Activity against anaerobic bacteria; format: cell-based; settings: agar-dilution method
[25] = test system: Clostridium perfringens 81; assay: microbe, parasite or virus in culture; format: cell-based
[26] = test system: Streptococcus sp. (Group D) X66; assay: Disc-plate sensitivity; format: cell-based; settings: second test, Table 13; for zone of inhibition at 30 µg/disc / zone of inhibition at 300 µg/disc: Streptococcus
[27] = test system: experimental bacterial infections; assay: In vivo antimicrobial activity against experimental bacterial infections; settings: mice, subcutaneously
Method: as §2

Electrometric titration = format: physicochemical; settings: 66 percent dimethylformamide in water
From the text: Antibiotic A54556 factor A is a tan, amorphous solid. […] As determined by electron impact and field desorption mass spectrometry, A54556 factor A has a molecular weight of 718.

[28] = 30 mcg./disc, second test, Table 13, listed as A
[29] = 300 mcg./disc, second test, Table 13
[30] = 30 mcg./disc, second test, Table 13
[31] = read-out: Zone diameter, 30 mcg./disc
[32] = read-out: Zone diameter, 300 mcg./disc
[33] = 30 mcg./disc, second test, Table 13, listed as E
[34] = 300 mcg./disc, second test, Table 13, listed as C

Structure (SMILES): C/C=C/C=C/C=C/C(=O)NC(Cc1ccccc1)C(=O)NC1COC(=O)C2CCCN2C(=O)C(C)NC(=O)C(C)N(C)C(=O)C2CC(C)CN2C1=O (stereo not shown) [Factor A] ({Octatrienoyl(2E,4E,6E)}-FS[ξPro(4ξ-Me)][NMeA]AP; ester 2-C; configuration not given here)
- MIC [1]: > 128 µg/mL
- Zone diameter ([2]; 30 mcg./disc): 18.3 mm.
- Zone diameter ([2]; 300 mcg./disc): 20.9 mm.
- Zone diameter ([3]; 30 mcg./disc): 20 mm.
- Zone diameter ([3]; 300 mcg./disc): 22 mm. and 28 mm.
- MIC (Peptococcus prevoti 1281): > 128 µg/mL
- Zone diameter ([4]; 30 mcg./disc, Table 12): 26.0 mm.
- Zone diameter [4, 28]: 18 mm. and 22 mm.
- Zone diameter ([4]; 300 mcg./disc, Table 12): 34.0 mm.
- Zone diameter [4, 29]: 33 mm. and 35 mm.
- Zone diameter ([5]; 30 mcg./disc): 21.7 mm.
- Zone diameter ([5]; 300 mcg./disc): 25.5 mm.
- Zone diameter ([6]; 30 mcg./disc, Table 12): 24.0 mm.
- Zone diameter [6, 30]: 25 mm.
- Zone diameter [6, 28]: 20 mm.
- Zone diameter ([6]; 300 mcg./disc, Table 12): 30.0 mm.
- Zone diameter [6, 29]: 30 mm. and 32 mm.
- MIC [7]: > 128 µg/mL
- MIC [8]: > 128 µg/mL
- Zone diameter ([9]; 30 mcg./disc): 20 mm. and 22 mm.
- Zone diameter ([9]; 300 mcg./disc): 27 mm. and 33 mm.
- solubility in organic solvents (Solubility): soluble
- solubility in water (Solubility; water): insoluble
- Zone diameter ([10]; 30 mcg./disc, Table 12): 19.2 mm.
- Zone diameter [10, 30]: 19 mm. and 21 mm.
- Zone diameter ([10]; 300 mcg./disc, Table 12): 24.3 mm.
- Zone diameter [10, 29]: 24 mm.
- Zone diameter ([10]; 300 mcg./disc, second test, Table 13, listed as A): 28 mm.
- MIC [11]: > 128 µg/mL
- MIC [12]: > 128 µg/mL
- MIC [13]: > 128 µg/mL
- MIC [14]: > 128 µg/mL
- MIC [15]: > 128 µg/mL
- MIC [16]: > 128 µg/mL
- MIC [17]: > 128 µg/mL
- MIC [18]: > 128 µg/mL
- MIC (Bacteroides fragilis 111): > 128 µg/mL
- MIC [19]: > 128 µg/mL
- MIC [20]: > 128 µg/mL
- MIC [21]: > 128 µg/mL
- MIC [22]: > 128 µg/mL
- ED50 (S. pyogenes): > 70 mg/kg
- MIC [23]: > 128 µg/mL
- zone of inhibition at 30 µg/disc [24]: 22.4 mm
- zone of inhibition at 300 µg/disc [24]: 28 mm
- activity against a number of anaerobic bacteria (anaerobic bacteria): active
- MIC [25]: > 128 µg/mL
- Zone diameter ([26]; 30 mcg./disc, listed as A): 28 mm.
- Zone diameter ([26]; 300 mcg./disc): 29 mm.
- zone of inhibition at 30 µg/disc [26, 31]: 23 mm
- zone of inhibition at 300 µg/disc [26, 32]: 33 mm
- in vivo antimicrobial activity against experimental bacterial infections [27]: have shown in vivo antimicrobial activity
- titratable groups (Electrometric titration): no titratable groups

Structure (SMILES): C/C=C/C=C/C(=O)NC(Cc1ccccc1)C(=O)NC1COC(=O)C2CCCN2C(=O)C(C)NC(=O)C(C)N(C)C(=O)C2CCCN2C1=O (stereo not shown) [Factor E] ({Hexadienoyl(2E,4E)}-FSP[NMeA]AP; ester 2-C; configuration not given here)
- MIC [1]: > 128 µg/mL
- Zone diameter ([3]; 30 mcg./disc, listed as E): 13 mm. and 11 mm.
- Zone diameter ([3]; 300 mcg./disc): 25 mm. and 24 mm.
- MIC (Peptococcus prevoti 1281): 128 µg/mL (≈ 189 µM)
- Zone diameter [4, 30]: 25 mm.
- Zone diameter [4, 33]: 22 mm.
- Zone diameter [4, 29]: 35 mm. and 28 mm.
- Zone diameter [6, 33]: 20 mm. and 18 mm.
- Zone diameter [6, 29]: 30 mm. and 24 mm.
- MIC [7]: > 128 µg/mL
- MIC [8]: 128 µg/mL (≈ 189 µM)
- Zone diameter ([9]; 30 mcg./disc): 17 mm.
- Zone diameter ([9]; 30 mcg./disc, listed as E): 13 mm.
- Zone diameter ([9]; 300 mcg./disc): 27 mm. and 23 mm.
- solubility in organic solvents (Solubility): soluble
- Zone diameter [10, 30]: 17 mm.
- Zone diameter [10, 33]: 15 mm.
- Zone diameter [10, 29]: 23 mm.
- MIC [11]: > 128 µg/mL
- MIC [12]: > 128 µg/mL
- MIC [13]: > 128 µg/mL
- MIC [14]: > 128 µg/mL
- MIC [15]: > 128 µg/mL
- MIC [16]: > 128 µg/mL
- MIC [17]: > 128 µg/mL
- MIC [18]: > 128 µg/mL
- MIC (Bacteroides fragilis 111): > 128 µg/mL
- MIC [19]: > 128 µg/mL
- MIC [20]: > 128 µg/mL
- MIC [21]: > 128 µg/mL
- MIC [22]: 64 µg/mL (≈ 94.3 µM)
- ED50 (S. pyogenes): > 70 mg/kg
- MIC [23]: > 128 µg/mL
- activity against a number of anaerobic bacteria (anaerobic bacteria): active
- MIC [25]: > 128 µg/mL
- Zone diameter ([26]; 30 mcg./disc, listed as E): 21 mm.
- Zone diameter ([26]; 300 mcg./disc): 27 mm.
- zone of inhibition at 30 µg/disc [26, 31]: 22 mm
- zone of inhibition at 300 µg/disc [26, 32]: 28 mm
- in vivo antimicrobial activity against experimental bacterial infections [27]: have shown in vivo antimicrobial activity
- titratable groups (Electrometric titration): no titratable groups

Structure (SMILES): C/C=C/C=C/C(=O)NC(Cc1ccccc1)C(=O)NC1COC(=O)C2CCCN2C(=O)C(C)NC(=O)C(C)N(C)C(=O)C2CC(C)CN2C1=O (stereo not shown) [Factor C] ({Hexadienoyl(2E,4E)}-FS[ξPro(4ξ-Me)][NMeA]AP; ester 2-C; configuration not given here)
- MIC [1]: > 128 µg/mL
- Zone diameter ([3]; 30 mcg./disc): 21 mm. and 23 mm.
- Zone diameter ([3]; 300 mcg./disc): 24 mm.
- Zone diameter ([3]; 300 mcg./disc, listed as C): 26 mm.
- MIC (Peptococcus prevoti 1281): > 128 µg/mL
- Zone diameter [4, 30]: 25 mm. and 30 mm.
- Zone diameter [4, 29]: 30 mm.
- Zone diameter [4, 34]: 35 mm.
- Zone diameter [6, 30]: 22 mm. and 28 mm.
- Zone diameter [6, 29]: 30 mm.
- Zone diameter [6, 34]: 33 mm.
- MIC [7]: > 128 µg/mL
- MIC [8]: > 128 µg/mL
- Zone diameter ([9]; 30 mcg./disc): 24 mm.
- Zone diameter ([9]; 30 mcg./disc, listed as C): 21 mm.
- Zone diameter ([9]; 300 mcg./disc): 30 mm. and 25 mm.
- solubility in organic solvents (Solubility): soluble
- Zone diameter [10, 30]: 21 mm. and 23 mm.
- Zone diameter [10, 29]: 25 mm. and 31 mm.
- MIC [11]: > 128 µg/mL
- MIC [12]: > 128 µg/mL
- MIC [13]: > 128 µg/mL
- MIC [14]: > 128 µg/mL
- MIC [15]: > 128 µg/mL
- MIC [16]: > 128 µg/mL
- MIC [17]: > 128 µg/mL
- MIC [18]: > 128 µg/mL
- MIC (Bacteroides fragilis 111): > 128 µg/mL
- MIC [19]: > 128 µg/mL
- MIC [20]: 32 µg/mL (≈ 46.2 µM)
- MIC [21]: > 128 µg/mL
- MIC ([22]; agar-dilution, read-out: MIC): 16 µg/mL (≈ 23.1 µM)
- ED50 (S. pyogenes): 11.1 mg/kg
- MIC [23]: > 128 µg/mL
- activity against a number of anaerobic bacteria (anaerobic bacteria): active
- MIC [25]: > 128 µg/mL
- Zone diameter ([26]; 30 mcg./disc): 25 mm.
- Zone diameter ([26]; 300 mcg./disc, listed as C): 35 mm.
- zone of inhibition at 30 µg/disc ([26]; 30 mcg./disc, read-out: Zone diameter): 24 mm
- zone of inhibition at 300 µg/disc ([26]; 300 mcg./disc, read-out: Zone diameter): 25 mm
- in vivo antimicrobial activity against experimental bacterial infections [27]: have shown in vivo antimicrobial activity
- titratable groups (Electrometric titration): no titratable groups
